{"source": "patent US20210353579A1", "about": "“HIGH PENETRATION COMPOSITIONS AND USES THEREOF” (Techfields Pharma Co., Ltd., priority 2006, published 2021)", "key": {"[1]": {"system": "Human breast cancer cells (BCAP-37)", "test": "Human breast cancer xenograft in nude mice, topical", "details": "day 42; 30 μl of 5% (1.5 mg) topically every 8 hours from day 14; control 800 ± 100", "how_it_was_run": "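BCAP-37 tumour tissue (2-3 mm^3) was xenografted subcutaneously into the front leg of nude BALB mice, 7 per group. Compounds were applied topically as 30 μl of 5% solution (1.5 mg) in acetone or water.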"}, "[2]": {"system": "rats (SLAC/GK, type 2 diabetes)", "test": "Blood lipid in type 2 diabetes rats, transdermal", "format": "in vivo, rat", "how_it_was_run": "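GK type 2 diabetic rats (n=7) received the HPPs transdermally on a shaved ~1.5 cm^2 area of the back, at a dose equal to 20 mg/kg of NSAIAs, once daily for 5 weeks. Non-fasting blood glucose was measured every 3 days at 3 pm from week 2 to week 5, and blood lipids at the end of week 5.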"}, "[3]": {"system": "rats (SLAC/GK, type 2 diabetes)", "test": "Blood lipid in type 2 diabetes rats, oral with food", "format": "in vivo, rat", "how_it_was_run": "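Compounds (dosed equivalent to 20 mg/kg of NSAIAs) mixed in food and given orally daily for 5 weeks to rats (n=7). Non-fasting blood glucose measured every 3 days at 3 pm from week 2 to week 5; blood lipids measured at end of week 5.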"}, "[4]": {"system": "mice (SLAC:NOD-IDDM, type 1 diabetes)", "test": "Blood glucose in type 1 diabetes mice, transdermal", "format": "in vivo, mouse", "how_it_was_run": "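NOD-IDDM type 1 diabetic mice (n=7) received prodrug transdermally on shaved back skin (~1.5 cm²), at a dose equivalent to 30 mg/kg NSAIA, once daily for 7 weeks. Non-fasted blood glucose was measured every 3 days at 3 pm from week 4 to week 7.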"}, "Chinese white rabbits": {"system": "Chinese white rabbits", "test": "Autologous blood clot pulmonary embolization, thrombus propagation", "format": "in vivo, rabbit", "details": "20 mg/kg topically, after 2 days", "description": "Eighteen Chinese White rabbits weighing between 3.0 and 3.5 kg (aged 6-7 months) were selected and divided into three groups (control, P-1 and […] groups, n=6). One hour before the experiment, thrombi were made by aspirating venous blood (1 ml) into a sterilized bottle to clot. To avoid fragmentation and slow lysis, the autologous blood clots were stabilized in temperature-controlled (70° C.) distilled water for 10 min. After anesthesia, the femoral veins were exposed and distally isolated, and autologous blood clots (0.05 g/kg) were injected through an indwelling catheter (20 GA), which had been placed in the femoral vein isolated earlier. 50% acetone solution of diethylaminoethyl acetylsalicylate.acetylsalicylic acid salt (P-1, in acetone, 20 mg/kg) and diethylaminoethyl acetylsalicylsalicylate. acetylsalicylsalicylic acid salt (P-59, 20 mg/kg) were topically applied to the back of the rabbits. After 2 days, rabbits were euthanized with an excessive intravenous injection of sodium amobarbital (60 mg/kg). The lungs and hearts were isolated to observe whether thrombi were present in the pulmonary arteries. The lungs were immersed in 10% formalin for 24 h. Consecutive transverse sections along the obstructed pulmonary arteries were paraffin-embedded and stained with hematoxylin-eosine. […]"}, "[5]": {"details": "baseline, equal to 20 mg/kg of NSAIAs"}, "[6]": {"details": "end of the fifth week, equal to 20 mg/kg of NSAIAs once per day"}, "[7]": {"details": "end of the fifth week, equal to 20 mg/kg of NSAIAs every day"}}, "data": [{"smiles": "CC(=O)Oc1ccccc1C(=O)O.CCN(CC)CCOC(=O)c1ccccc1OC(C)=O", "note": "[P-1, diethylaminoethyl acetylsalicylate.acetylsalicylic acid salt]", "values": [{"measurement": "Tumor size", "setting": "[1]", "result": "150 ± 50", "unit": "mm^3"}, {"measurement": "Cholesterol (HDL), Baseline", "setting": "[2]; [5]", "result": "1.4 ± 0.2", "unit": "mmol/L"}, {"measurement": "Cholesterol (total), Baseline", "setting": "[2]; [5]", "result": "7.7 ± 0.4", "unit": "mmol/L"}, {"measurement": "Triglycerides, Baseline", "setting": "[2]; [5]", "result": "5.4 ± 0.5", "unit": "mmol/L"}, {"measurement": "Cholesterol (HDL), Average", "setting": "[2]; [6]", "result": "1.5 ± 0.2", "unit": "mmol/L"}, {"measurement": "Cholesterol (total), Average", "setting": "[2]; [6]", "result": "4.0 ± 0.3", "unit": "mmol/L"}, {"measurement": "Triglycerides, Average", "setting": "[2]; [6]", "result": "1.5 ± 0.2", "unit": "mmol/L"}, {"measurement": "Cholesterol (HDL), Baseline", "setting": "[3]; [5]", "result": "1.5 ± 0.2", "unit": "mmol/L"}, {"measurement": "Cholesterol (total), Baseline", "setting": "[3]; [5]", "result": "7.6 ± 0.4", "unit": "mmol/L"}, {"measurement": "Triglycerides, Baseline", "setting": "[3]; [5]", "result": "5.7 ± 0.5", "unit": "mmol/L"}, {"measurement": "Cholesterol (HDL), Average", "setting": "[3]; [7]", "result": "1.6 ± 0.2", "unit": "mmol/L"}, {"measurement": "Cholesterol (total), Average", "setting": "[3]; [7]", "result": "4.1 ± 0.3", "unit": "mmol/L"}, {"measurement": "Triglycerides, Average", "setting": "[3]; [7]", "result": "1.4 ± 0.2", "unit": "mmol/L"}, {"measurement": "Blood glucose, Average", "setting": "[4]; average fourth to seventh week, no fasting, equal to 30 mg/kg of NSAIAs once per day for 7 weeks", "result": "6.5 ± 1", "unit": "mmol/L"}, {"measurement": "Blood glucose, Baseline", "setting": "[4]; baseline, equal to 30 mg/kg of NSAIAs", "result": "26.1 ± 5", "unit": "mmol/L"}, {"measurement": "lung tissue and vascular walls (thrombus propagation)", "setting": "Chinese white rabbits", "result": "both lung tissue and vascular walls were normal"}]}]}
